Measurements from US8669380B2, “Dioxa-bicyclo[3.2.1]octane-2,3,4-triol derivatives” (Pfizer Inc., priority 2009, dated 2014).
Where “and” joins values, the source holds several entries; their conditions need not be identical. Equal values may be shown once. Read-outs that look alike come from different tables or passages of the source.

How the values were obtained:
human SGLT2 = human SGLT2 (Homo sapiens (Human), UniProt P31639); test: SGLT2 functional assay: inhibition of AMG uptake in CHO-FlpIn cells stably expressing human SGLT2; assay type: cell-based; conditions: read-out: hSGLT2 IC50
Sequence of human SGLT2 (P31639 whole entry): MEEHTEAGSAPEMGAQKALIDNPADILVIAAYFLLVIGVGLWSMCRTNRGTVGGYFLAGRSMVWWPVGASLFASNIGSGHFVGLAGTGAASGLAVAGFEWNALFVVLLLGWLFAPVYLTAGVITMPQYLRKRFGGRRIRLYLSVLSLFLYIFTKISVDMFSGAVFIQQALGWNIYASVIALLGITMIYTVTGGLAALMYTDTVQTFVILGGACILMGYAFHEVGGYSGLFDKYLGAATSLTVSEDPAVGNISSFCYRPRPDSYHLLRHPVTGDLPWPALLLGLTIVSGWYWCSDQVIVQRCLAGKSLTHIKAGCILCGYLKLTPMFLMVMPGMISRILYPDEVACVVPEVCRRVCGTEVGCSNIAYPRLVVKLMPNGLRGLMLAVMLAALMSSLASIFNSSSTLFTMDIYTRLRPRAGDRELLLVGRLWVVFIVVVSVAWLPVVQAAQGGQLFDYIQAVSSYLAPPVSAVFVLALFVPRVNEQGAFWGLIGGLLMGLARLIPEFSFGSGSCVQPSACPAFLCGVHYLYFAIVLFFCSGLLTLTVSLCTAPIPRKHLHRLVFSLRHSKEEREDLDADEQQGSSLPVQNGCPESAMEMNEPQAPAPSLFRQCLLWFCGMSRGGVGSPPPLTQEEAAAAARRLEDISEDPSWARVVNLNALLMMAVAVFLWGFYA
Source text: The SGLT2 functional assay was designed to detect the inhibition of methyl-alpha-D glucopyranoside (AMG—a non-metabolizable form of glucose) uptake via the SGLT2 transporter. The SGLT2 transporter recovers glucose from the proximal tubules of the kidney; its inhibition results in sugar wasted in the urine. The positive control compound, Phlorizin, is a known inhibitor of glucose uptake for SGLT2 and was used for comparing the high percent effect of SGLT2 inhibition of the test compounds.
CHO-FlpIn (Invitrogen, Carlsbad, Calif.) cells stably expressing human SGLT2 (pcDNA5/FRT) were plated in Iso-TC 96 well plates (Perkin Elmer, Waltham, Mass.) at a density of 100,000 cells/well in 100 microL of growth media (1:1 F-12/DMEM media (Gibco, Carlsbad, Calif.), 10% FBS (Sigma, St. Louis Mo.), 1× Pen/Strep (Gibco, Carlsbad, Calif.), 600 microg/mL Hygromycin (Invitrogen, Carlsbad, Calif.)). Prior to treating with test compound, confluent cells were serum starved for 2 hours at 37° C. in 1:1 F-12/DMEM media, replacing with fresh F-12/DMEM media after 1 hour. […] After incubation, cells were washed twice with ice cold wash buffer (uptake buffer containing 200 microM Phlorizin (Sigma), air dried and lysed in 30 microL of 200 mM NaOH and 1% SDS buffer on an orbital shaker. Microscint 40 (Perkin Elmer, Waltham, Mass.) was added to the lysed cells (giving a final volume of 200 microL) and mixed by orbital shaking for 30 minutes. Plates were stored in the dark overnight and quantitated in the 1540 Microbeta Trilux (Wallac, Waltham, Mass.) using a normalized protocol for ^14C detection. The percent effect of test compounds to inhibit AMG uptake was calculated using the following calculation: [% Effect=((ZPE−T)/(ZPE−HPE))×100%] where “ZPE” is the corrected counts per minute (CCPM) in control wells containing 0.5% DMSO, “T” is the CCPM in wells containing test compound at various concentrations of the standard curve, and “HPE” is the high percent effect referring to the CCPM in control wells containing 10 microM Phlorizin. The IC50 values were calculated using a dose response equation and are summarized for the compounds tested in Table 1. **For test compound 1, cells were pre-incubated with test compound 1 for 15 minutes prior to the addition of the appropriate amount of AMG (40 nCi AMG [U-^14C] (Perkin Elmer, Waltham, Mass.) in unlabelled AMG (Aldrich, St. Louis, Mo.)) per well yielding a final concentration of 200 microM AMG. […]

hSGLT1 = hSGLT1 (Homo sapiens (Human), UniProt P13866); test: hSGLT1 inhibition (Table 1); assay type: cell-based; conditions: individual runs (Run No.)
Sequence of hSGLT1 (P13866 whole entry): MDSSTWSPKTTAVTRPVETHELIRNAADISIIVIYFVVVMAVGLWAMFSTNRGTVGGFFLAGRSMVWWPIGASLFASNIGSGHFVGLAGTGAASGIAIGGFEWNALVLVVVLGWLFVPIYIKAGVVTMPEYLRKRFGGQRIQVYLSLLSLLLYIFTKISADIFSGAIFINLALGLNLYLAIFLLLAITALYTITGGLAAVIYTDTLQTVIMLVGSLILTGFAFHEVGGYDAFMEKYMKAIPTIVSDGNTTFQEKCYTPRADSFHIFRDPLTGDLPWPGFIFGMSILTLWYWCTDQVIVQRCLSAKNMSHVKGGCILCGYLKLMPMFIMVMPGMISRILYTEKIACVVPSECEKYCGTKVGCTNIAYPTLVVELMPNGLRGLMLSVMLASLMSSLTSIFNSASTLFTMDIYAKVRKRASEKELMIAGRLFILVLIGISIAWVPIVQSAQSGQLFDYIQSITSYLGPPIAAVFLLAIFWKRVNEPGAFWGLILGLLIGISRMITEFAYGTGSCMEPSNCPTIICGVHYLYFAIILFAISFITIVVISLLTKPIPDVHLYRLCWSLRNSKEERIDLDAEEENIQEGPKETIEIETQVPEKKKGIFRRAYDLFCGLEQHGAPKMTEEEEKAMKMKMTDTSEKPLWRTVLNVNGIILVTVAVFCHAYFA

[1] = final concentration of 11.33 microM AMG, individual runs (Run No.)

Row | Structure (SMILES) | IC50 (human SGLT2; ** final concentration of 200 microM AMG) [nM] | melting point [°C] | IC50 (human SGLT2; [1]) | IC50 (hSGLT1)
1 | OC[C@@]12CO[C@@](c3ccc(Cl)c(Cc4ccc(O)cc4)c3)(O1)[C@H](O)[C@@H](O)[C@@H]2O [Example 1, (1S,2S,3S,4R,5S)-5-[4-chloro-3-(4-hydroxy-benzyl)-phenyl]-1-hydroxymethyl-6,8-dioxa-bicyclo[3.2.1]octane-2,3,4-triol] | 2.6 | – | – | –
2 | CCOc1ccc(Cc2cc([C@]34OC[C@](COC(C)=O)(O3)[C@@H](OC(C)=O)[C@H](OC(C)=O)[C@H]4OC(C)=O)ccc2Cl)cc1 [Example 2, Acetic acid (1R,2S,3S,4R,5S)-3,4-diacetoxy-1-acetoxymethyl-5-[4-chloro-3-(4-ethoxy-benzyl)-phenyl]-6,8-dioxa-bicyclo[3.2.1]oct-2-yl ester] | – | 134.3 | 1090 nM and 1770 nM | 10000 nM
3 | CCOc1ccc(Cc2cc([C@]34OC[C@](COC(C)=O)(O3)[C@@H](O)[C@H](O)[C@H]4O)ccc2Cl)cc1 [Example 3, Acetic acid (1R,2S,3S,4R,5S)-5-[4-chloro-3-(4-ethoxy-benzyl)-phenyl]-2,3,4-trihydoxy-6,8-dioxa-bicyclo[3.2.1]oct-1-ylmethyl ester] | – | – | – | 3470 nM and 5830 nM
4 | CCOC(=O)OC[C@@]12CO[C@@](c3ccc(Cl)c(Cc4ccc(OCC)cc4)c3)(O1)[C@H](O)[C@@H](O)[C@@H]2O [Example 4, Carbonic acid (1R,2S,3S,4R,5S)-5-[4-chloro-3-(4-ethoxy-benzyl)-phenyl]-2,3,4-trihydroxy-6,8-dioxa-bicyclo[3.2.1]oct-1-ylmethyl ester ethyl ester] | – | – | 45.9 nM | 3360 nM
5 | CCOc1ccc(Cc2cc([C@]34OC[C@](CF)(O3)[C@@H](O)[C@H](O)[C@H]4O)ccc2Cl)cc1 [Example 8, (1S,2S,3S,4R,5S)-5-[4-Chloro-3-(4-ethoxy-benzyl)-phenyl]-1-fluoromethyl-6,8-dioxa-bicyclo[3.2.1]octane-2,3,4-triol] | – | – | 4 nM (2×) and 3 nM | 1970 nM and 1890 nM and 2000 nM
